Legend:
human NaPi-2a = biological target: T1, human NaPi-2a (Homo sapiens, UniProt Q06495); experiment: Sodium-dependent phosphate uptake of Xenopus oocytes which expressed NaPi-2a (32P); assay type: cell-based; conditions: phosphate uptake, Xenopus oocytes expressing human NaPi-2a; five concentration levels
T1 construct: expressed in transfected cells
T1 sequence (Q06495 1-639): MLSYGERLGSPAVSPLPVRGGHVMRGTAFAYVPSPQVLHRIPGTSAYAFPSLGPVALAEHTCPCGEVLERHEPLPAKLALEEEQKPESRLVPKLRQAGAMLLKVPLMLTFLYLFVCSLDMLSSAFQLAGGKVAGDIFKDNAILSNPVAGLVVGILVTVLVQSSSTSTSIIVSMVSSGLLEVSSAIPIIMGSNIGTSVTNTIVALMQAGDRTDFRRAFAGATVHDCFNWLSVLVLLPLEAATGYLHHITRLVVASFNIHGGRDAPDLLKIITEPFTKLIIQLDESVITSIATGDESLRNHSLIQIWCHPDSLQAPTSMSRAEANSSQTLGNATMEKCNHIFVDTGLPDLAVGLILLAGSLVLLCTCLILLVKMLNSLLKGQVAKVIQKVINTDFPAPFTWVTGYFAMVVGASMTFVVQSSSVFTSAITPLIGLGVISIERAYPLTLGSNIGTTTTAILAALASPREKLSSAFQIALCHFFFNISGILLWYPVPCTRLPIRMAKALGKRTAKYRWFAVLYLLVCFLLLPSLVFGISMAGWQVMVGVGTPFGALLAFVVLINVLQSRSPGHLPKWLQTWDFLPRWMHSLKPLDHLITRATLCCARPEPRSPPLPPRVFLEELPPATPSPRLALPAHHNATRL
Text: Experiment of Sodium-Dependent Phosphate Uptake of Xenopus oocytes which Expressed NaPi-2a
In the test, a group with the addition of choline chloride (Choline Cl) was used as a negative control for nonspecific uptake, and PFA (phosphonoformic acid) was used as a positive control for phosphate transport inhibition.

rat NaPi-2b = biological target: T2, rat NaPi-2b (Rattus norvegicus, UniProt Q9JJ09); experiment: Sodium-dependent phosphate uptake of Xenopus oocytes which expressed NaPi-2b (32P); assay type: cell-based; conditions: Xenopus oocytes expressing rat NaPi-2b, 32P radioactive phosphorus; read-out: IC50 (phosphate uptake inhibitory activity)
T2 construct: expressed in transfected cells; host or cells: Xenopus oocytes injected with cRNA
T2 sequence (Q9JJ09 1-695): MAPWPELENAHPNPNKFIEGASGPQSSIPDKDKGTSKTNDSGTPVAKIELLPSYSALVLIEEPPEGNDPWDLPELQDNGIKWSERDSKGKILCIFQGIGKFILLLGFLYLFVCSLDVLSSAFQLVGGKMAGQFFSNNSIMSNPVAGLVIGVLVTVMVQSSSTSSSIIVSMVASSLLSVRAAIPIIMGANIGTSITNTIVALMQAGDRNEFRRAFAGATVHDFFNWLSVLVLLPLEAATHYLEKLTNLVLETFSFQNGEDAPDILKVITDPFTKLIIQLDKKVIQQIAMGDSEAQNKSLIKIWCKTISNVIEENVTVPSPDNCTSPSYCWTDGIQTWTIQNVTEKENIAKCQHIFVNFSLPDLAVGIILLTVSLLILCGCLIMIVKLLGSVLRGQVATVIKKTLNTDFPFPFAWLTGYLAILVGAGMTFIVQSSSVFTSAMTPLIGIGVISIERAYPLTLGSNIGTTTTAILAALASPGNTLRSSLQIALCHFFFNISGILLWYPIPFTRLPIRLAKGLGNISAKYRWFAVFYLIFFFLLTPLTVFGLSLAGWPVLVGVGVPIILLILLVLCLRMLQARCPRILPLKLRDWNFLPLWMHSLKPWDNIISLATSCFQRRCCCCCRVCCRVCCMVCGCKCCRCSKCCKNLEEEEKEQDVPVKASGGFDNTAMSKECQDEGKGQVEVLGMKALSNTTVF
In short: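 Oocytes injected with rat NaPi-2b cRNA, cultured 2 d, then 32P uptake measured with compound. Values: % inhibition at 300 and 100 μM, both from one inhibition curve.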

IC50 (human NaPi-2a) [µM]	IC50 (rat NaPi-2b) [µM]	Compound
28.8	3.88	COc1ccc(/C=N/NC(=O)c2c(C)csc2NC(=O)c2cccc(CN3CCN(c4ncccn4)CC3)c2)cc1 [Compound 831, N-[3-(4-Methoxy-benzylidene-hydrazinocarbonyl)-4-methyl-thiophen-2-yl]-3-(4-pyrimidin-2-yl-piperazin-1-ylmethyl)-benzamide]
28.7	< 1	COc1ccc(/C=N/NC(=O)c2c(NC(=O)c3cccc(CN(CC(C)O)CC(C)O)c3)sc3c2CCCC3)cc1 (stereo not shown) [Compound 632, 3-{[Bis-(2-hydroxy-propyl)-amino]-methyl}-N-[3-(4-methoxy-benzylidene-hydrazinocarbonyl)-4,5,6,7-tetrahydro-benzo-[b]thiophen-2-yl]-benzamide]
5.52	< 0.3	O=C(Nc1ccc(N2CCCCC2)cc1C(=O)N/N=C/c1ccc(F)cc1)c1cccc(CN2CCc3nc4ncccc4cc3C2)c1 [Compound 895, 3-(7,8-Dihydro-5H-1,6,9-triaza-anthracen-6-ylmethyl)-N-[2-(4-fluoro-benzylidene-hydrazinocarbonyl)-4-piperidin-1-yl-phenyl]-benzamide]
37.2	9.11	CCN(CC)CCNCc1cccc(C(=O)Nc2sc3c(c2C(=O)N/N=C/c2ccc(C)cc2)CCC3)c1 [Compound 811, 3-[(2-Diethylamino-ethylamino)-methyl]-N-[3-(4-methyl-benzylidene-hydrazinocarbonyl)-5,6-dihydro-4H-cyclopenta[b]thiophen-2-yl]-benzamide]
10.7	4.81	Cc1csc(NC(=O)c2cccc(CN3CCN(c4ncccn4)CC3)c2)c1C(=O)N/N=C/c1ccc(Cl)c(C(F)(F)F)c1 [Compound 830, N-[3-(4-Chloro-3-trifluoromethyl-benzylidene-hydrazinocarbonyl)-4-methyl-thiophen-2-yl]-3-(4-pyrimidin-2-yl-piperazin-1-ylmethyl)-benzamide]
10	9.33	Cc1csc(NC(=O)c2cccc(CN3CCN(c4ncccn4)CC3)c2)c1C(=O)N/N=C/c1ccc(F)cc1 [Compound 828, N-[3-(4-Fluoro-benzylidene-hydrazinocarbonyl)-4-methyl-thiophen-2-yl]-3-(4-pyrimidin-2-yl-piperazin-1-ylmethyl)-benzamide]
5.11	< 0.3	Cc1ccc(/C=N/NC(=O)c2cc(N3CCCCC3)ccc2NC(=O)c2cccc(CN3CCc4nc5ncccc5cc4C3)c2)cc1C [Compound 893, 3-(7,8-Dihydro-5H-1,6,9-triaza-anthracen-6-ylmethyl)-N-[2-(3,4-dimethyl-benzylidene-hydrazinocarbonyl)-4-piperidin-1-yl-phenyl]-benzamide]
< 3	1.69	Cc1ccc(/C=N/NC(=O)c2c(C)csc2NC(=O)c2cccc(CN(CCO)CCO)c2)cc1 [Compound 787, 3-{[Bis-(2-hydroxy-ethyl)-amino]-methyl}-N-[4-methyl-3-(4-methyl-benzylidene-hydrazinocarbonyl)-thiophen-2-yl]-benzamide]
2.67	0.18	Cc1ccc(/C=N/NC(=O)c2cc(N3CCCCC3)ccc2NC(=O)c2cccc(CSCCO)c2)cc1 [Compound 881, 3-(2-Hydroxy-ethylsulfanylmethyl)-N-[2-(4-methyl-benzylidene-hydrazinocarbonyl)-4-piperidin-1-yl-phenyl]-benzamide]
12.9	3.01	CC(O)CN(Cc1cccc(C(=O)Nc2sc3c(c2C(=O)N/N=C/c2ccc(F)cc2)CCCC3)c1)CC(C)O (stereo not shown) [Compound 629, 3-{[Bis-(2-hydroxy-propyl)-amino]-methyl}-N-[3-(4-fluoro-benzylidene-hydrazinocarbonyl)-4,5,6,7-tetrahydro-benzo[b]thiophen-2-yl]-benzamide]
31.4	7.38	O=C(Nc1sc2c(c1C(=O)N/N=C/c1ccc(F)cc1)CCC2)c1cccc(CN2CCC(CO)CC2)c1 [Compound 818, N-[3-(4-Fluoro-benzylidene-hydrazinocarbonyl)-5,6-dihydro-4H-cyclopenta[b]thiophen-2-yl]-3-(4-hydroxymethyl-piperidin-1-ylmethyl)-benzamide]
4.22	3.15	COc1ccc(/C=N/NC(=O)c2c(NC(=O)c3cccc(CN4CCC(O)CC4)c3)sc3c2CCCC3)cc1 [Compound 638, 3-(4-Hydroxy-piperidin-1-ylmethyl)-N-[3-(4-methoxy-benzylidene-hydrazinocarbonyl)-4,5,6,7-tetrahydro-benzo[b]thiophen-2-yl]-benzamide]
18	5.9	Cc1ccc(/C=N/NC(=O)c2c(C)csc2NC(=O)c2cccc(CN(C)C)c2)cc1C [Compound 822, 3-Dimethylaminomethyl-N-[3-(3,4-dimethyl-benzylidene-hydrazinocarbonyl)-4-methyl-thiophen-2-yl]-benzamide]
13.5	1.19	Cc1ccc(/C=N/NC(=O)c2c(NC(=O)c3cccc(CN4CCC(O)CC4)c3)sc3c2CCCC3)cc1C [Compound 633, N-[3-(3,4-Dimethyl-benzylidene-hydrazinocarbonyl)-4,5,6,7-tetrahydro-benzo[b]thiophen-2-yl]-3-(4-hydroxy-piperidin-1-ylmethyl)-benzamide]
16.9	1.74	Cc1ccc(/C=N/NC(=O)c2c(NC(=O)c3cccc(CN4CCC(O)CC4)c3)sc3c2CCCC3)cc1 [Compound 634, 3-(4-Hydroxy-piperidin-1-ylmethyl)-N-[3-(4-methyl-benzylidene-hydrazinocarbonyl)-4,5,6,7-tetrahydro-benzo[b]thiophen-2-yl]-benzamide]
7.53	2.92	O=C(Nc1sc2c(c1C(=O)N/N=C/c1ccc(F)cc1)CCCC2)c1cccc(CN2CCC(CO)CC2)c1 [Compound 641, N-[3-(4-Fluoro-benzylidene-hydrazinocarbonyl)-4,5,6,7-tetrahydro-benzo[b]thiophen-2-yl]-3-(4-hydroxymethyl-piperidin-1-ylmethyl)-benzamide]
0.95	< 1	O=C(Nc1sc2c(c1C(=O)N/N=C/c1ccc(Cl)c(C(F)(F)F)c1)CCCC2)c1cccc(CN2CCC(O)CC2)c1 [Compound 637, N-[3-(4-Chloro-3-trifluoromethyl-benzylidene-hydrazinocarbonyl)-4,5,6,7-tetrahydro-benzo[b]thiophen-2-yl]-3-(4-hydroxy-piperidin-1-ylmethyl)-benzamide]
1.34	1.56	O=C(Nc1sc2c(c1C(=O)N/N=C/c1ccc(F)cc1)CCCC2)c1cccc(CN2CCC(O)CC2)c1 [Compound 635, N-[3-(4-Fluoro-benzylidene-hydrazinocarbonyl)-4,5,6,7-tetrahydro-benzo[b]thiophen-2-yl]-3-(4-hydroxy-piperidin-1-ylmethyl)-benzamide]
18.3	< 3	CCN(CC)CCNCc1cccc(C(=O)Nc2sc3c(c2C(=O)N/N=C/c2ccc(Cl)c(C(F)(F)F)c2)CCC3)c1 [Compound 814, N-[3-(4-Chloro-3-trifluoromethyl-benzylidene-hydrazinocarbonyl)-5,6-dihydro-4H-cyclopenta[b]thiophen-2-yl]-3-[(2-diethylamino-ethylamino)-methyl]-benzamide]
4.34	1.49	Cc1ccc(/C=N/NC(=O)c2cc(N3CCCCC3)ccc2NC(=O)c2cccc(CN3CCN(CCO)CC3)c2)cc1 [Compound 865, 3-[4-(2-Hydroxy-ethyl)-piperazin-1-ylmethyl]-N-[2-(4-methyl-benzylidene-hydrazinocarbonyl)-4-piperidin-1-yl-phenyl]-benzamide]

From patent US8134015B2, “Compound inhibiting in vivo phosphorous transport and medicine containing the same” (Kyowa Hakko Kirin Co., Ltd., priority 2003, dated 2012)
